Test results reported in publication PMC12390684 (Viruses, 2025).
Several values for one entry are separate records, joined by “and”; a condition that tells them apart may be missing. Identical values can stand only once. Square brackets hold non-standard residues; d marks the D form. Peptide text beside a SMILES is read from it. dNMeL = CN[C@H](CC(C)C)C(=O)O; Hiv = CC(C)[C@H](O)C(=O)O

Target: IN-GCN2 interaction (6xHis-IN / GST-GCN2) (UniProt P04585+Q9P2K8)
Test: biochemical
Assay type: binding, HIV-1 IN; human GCN2
Conditions: screen, single dose 100 µM, single replicate; residual AlphaLISA signal normalized to DMSO control

IN-GCN2 interaction (6xHis-IN / GST-GCN2), sequence (Q9P2K8 192-1024, other chains not shown): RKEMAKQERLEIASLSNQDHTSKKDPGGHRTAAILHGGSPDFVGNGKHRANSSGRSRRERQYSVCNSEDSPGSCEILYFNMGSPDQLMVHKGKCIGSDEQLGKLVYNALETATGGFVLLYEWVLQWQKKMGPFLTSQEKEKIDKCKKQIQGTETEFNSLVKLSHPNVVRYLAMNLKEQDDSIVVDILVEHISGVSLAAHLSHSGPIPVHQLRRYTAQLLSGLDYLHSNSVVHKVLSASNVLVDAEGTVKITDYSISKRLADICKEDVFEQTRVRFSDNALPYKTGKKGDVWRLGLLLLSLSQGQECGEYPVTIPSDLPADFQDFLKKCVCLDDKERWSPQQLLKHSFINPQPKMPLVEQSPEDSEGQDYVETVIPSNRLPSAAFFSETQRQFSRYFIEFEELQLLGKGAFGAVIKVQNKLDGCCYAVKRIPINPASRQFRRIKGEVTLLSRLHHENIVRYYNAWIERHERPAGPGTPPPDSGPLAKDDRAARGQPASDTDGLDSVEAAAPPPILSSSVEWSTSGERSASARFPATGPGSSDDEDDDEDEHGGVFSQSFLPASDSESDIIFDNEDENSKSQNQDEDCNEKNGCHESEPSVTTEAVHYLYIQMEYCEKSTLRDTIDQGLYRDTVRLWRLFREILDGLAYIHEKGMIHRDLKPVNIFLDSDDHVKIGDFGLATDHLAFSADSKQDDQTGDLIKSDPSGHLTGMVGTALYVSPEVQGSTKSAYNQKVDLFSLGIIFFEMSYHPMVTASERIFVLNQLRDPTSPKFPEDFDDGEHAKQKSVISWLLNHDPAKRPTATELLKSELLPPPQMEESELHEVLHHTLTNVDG

Row | Compound | IN-GCN2 interaction (%)
1 | C/C=C/c1cc2c(c(=O)o1)C(=O)[C@@H](O)[C@H](C)O2 [NSC118343] | 125.37%
2 | Br.CN1CCc2cc3c(cc2C1)OCO3 [NSC121859] | 114.20%
3 | O=C(O)CC1OCC=C2CN3CCC45c6ccccc6NC4C1C2CC35 (stereo not drawn) [NSC121860] | 104.59%
4 | COc1cc2c(cc1OC)C13CCN4CC5=CCOC(CC(=O)O)C(C5CC41)C3N2 (stereo not drawn) [NSC121865] | 122.60%
5 | CC(C)[C@@H]1NC(=O)[C@H](C)OC(=O)[C@@H](C(C)C)NC(=O)[C@@H](C(C)C)OC(=O)[C@H](C(C)C)NC(=O)[C@H](C)OC(=O)[C@@H](C(C)C)NC(=O)[C@@H](C(C)C)OC(=O)[C@H](C(C)C)NC(=O)[C@H](C)OC(=O)[C@@H](C(C)C)NC(=O)[C@@H](C(C)C)OC1=O [NSC122023] | 63.87%
6 | CC(C)C[C@@H]1NC(=O)[C@H](C(C)C)NC(=O)[C@H](C(C)C)OC(=O)[C@@H](CC(C)C)N(C)C(=O)[C@@H](C(C)C)NC(=O)[C@H](C(C)C)OC1=O [NSC122224] (cyclo([Hiv]VL[Hiv][dV][dNMeL])) | 110.56%
7 | COC1=C2C[C@@H](C)C[C@H](OC)[C@H](O)[C@@H](C)/C=C(\C)[C@H](OC(N)=O)[C@@H](OC)/C=C\C=C(/C)C(=O)NC(=CC1=O)C2=O [NSC122750] | 116.21%
8 | COc1cc([C@@H]2c3cc4c(cc3[C@@H](O[C@@H]3O[C@@H]5CO[C@@H](c6cccs6)O[C@H]5[C@H](O)[C@H]3O)[C@H]3COC(=O)[C@H]23)OCO4)cc(OC)c1O [NSC122819] | 96.83%
9 | COc1ccc(-c2cc(=O)c3ccc(O)cc3o2)cc1OC [NSC123383] | 118.02%
10 | COc1c(O)ccc2c1CN1CCc3cc4c(cc3C1C2)OCO4 (stereo not drawn) [NSC123389] | 87.65%
11 | CO[C@H]1[C@@H](O)[C@@H](C)O[C@@H](OC2CCC3(C)C(CCC4C3C(O)CC3(C)C(C5=CC(=O)OC5)CCC43O)C2)[C@@H]1O (stereo partly drawn) [NSC123977] | 127.41%
12 | CCC(C)(O)c1cnc(CC(C)C)c(=O)n1O (stereo not drawn) [NSC127445] | 137.47%
13 | O=C(O)/C=C/CC[C@@H]1SC[C@@H]2NC(=O)N[C@@H]21 [NSC127473] | 109.13%
14 | COC1=CC23CCCN2CCc2cc4c(cc2C3C1O)OCO4 (stereo not drawn) [NSC128487] | 118.57%
15 | C=C1C(=O)OC2CCN3CC=C(COC(=O)C(C)(O)C4(CO4)C1C)C23 (stereo not drawn) [NSC129230] | 110.22%
16 | CC(C)(O)[C@@H]1[C@H]2OC(=O)[C@@H]1[C@]1(O)C[C@H]3O[C@]34C(=O)O[C@H]2[C@]14C [NSC129536] | 112.62%
17 | CC[C@](C)(O)C(=O)O[C@H]1C(=O)O[C@@H]2C[C@H]3C(C)=CC(=O)[C@@H](O)[C@]3(C)[C@H]3[C@@]4(O)OC[C@]32[C@@H]1[C@@H](C)[C@H]4O [NSC132791] | 89.72%
18 | CO[C@H]1/C=C/O[C@@]2(C)Oc3c(C)c(O)c4c(O)c(cc(O)c4c3C2=O)NC(=O)/C(C)=C\C=C\[C@H](C)[C@H](O)[C@@H](C)[C@@H](O)[C@@H](C)[C@H](OC(C)=O)[C@@H]1C [NSC133100] | 111.79%
19 | CCCCCCCCCCCCCCCC(=O)OC[C@H]1O[C@@H](n2ccc(N)nc2=O)[C@@H](O)[C@@H]1O [NSC135962] | 92.71%
20 | NCCOC[C@H](N)C(=O)O [NSC136035] | 90.45%
21 | COC1CCC(OC2CC(C3(C)CCC4(CC(O)C(C)C(C(C)/C=C(\C)C(=O)C(C)CC(C)C(=O)O)O4)O3)OC3(OC(C4OC(O)(CO)C(C)CC4C)CC3C)C2C)OC1C (stereo not drawn) [NSC138320] | 102.91% and 57.85%
22 | COC1C(=O)CCC2(CO2)C1(O)C1(C)OC1CC=C(C)C (stereo not drawn) [NSC141538] | 103.23%
23 | C/C(=C\COc1ccc2ccc(=O)oc2c1)C1=CC(=O)C(C)(C)O1 [NSC142227] | 94.46%
24 | Cl.NC(=O)c1cn(C2OC(CO)C(O)C2O)c2ncnc(N)c12 (stereo not drawn) [NSC143648] | 113.09%
25 | CC(=O)C(=O)N[C@@H]1/C=C(C)/C=C/[C@@H](O)C/C=C(C)/C=C/[C@@H](O)C[C@H]2OC(=O)[C@]1(C)C(=O)[C@@H]2C [NSC145118] | 98.66%
26 | C=C1C(=O)OCC2C(C(=O)O)=CC3C(C)C(C)=CC123 (stereo not drawn) [NSC145150] | 111.51%
27 | CO[C@@H]1/C=C\O[C@]2(C)Oc3c(C)c(O)c4c(O)c(c(CN(C)C)c(O)c4c3C2=O)NC(=O)/C(C)=C\C=C[C@@H](C)[C@@H](O)[C@H](C)[C@@H](O)[C@H](C)[C@H](OC(C)=O)[C@@H]1C [NSC145612] | 71.81%

Row | Compound | IN-GCN2 interaction (%)
28 | COc1cc2c(cc1OC)C(OC)N(C)c1c-2ccc2cc3c(cc12)OCO3 (stereo not drawn) [NSC146396] | 90.77%
29 | COc1ccc(C[C@@H]2NC[C@@H](O)[C@@H]2OC(C)=O)cc1.Cl [NSC147340] | 88.95%
30 | CC(=O)O[C@H]1C[C@]2(O)[C@@H]3CC[C@@H]4C[C@@H](O)CC[C@]4(C)[C@H]3CC[C@]2(C)[C@H]1C1=CC(=O)OC1 [NSC148790] | 114.66%
31 | C[C@@H]1[C@H](O)[C@@H](C)/C=C/C=C/CC/C=C/C=C/C=C/C=C/C(O[C@H]2O[C@H](C)[C@@H](O)[C@H](N)[C@@H]2O)CC2O[C@](O)(CC(O)C(O)CCC(O)CC(O)CC(O)CC(=O)O[C@H]1C)CC(O)C2C(=O)O (stereo partly drawn) [NSC150817] | 68.70%
32 | COc1cc2cc(c1Cl)N(C)C(=O)C[C@H](OC(=O)[C@H](C)N(C)C(C)=O)[C@]1(C)O[C@H]1[C@H](C)[C@@H]1C[C@@](O)(NC(=O)O1)[C@H](OC)/C=C/C=C(\C)C2 [NSC153858] | 76.02%
33 | COC(=O)[C@H]1[C@H](O)[C@H](C)[C@@H](O)[C@](C)(O)/C=C(\C)C2=C3C(=C(C)C(=O)c4c(O)c(c(C)c(OC(C)=O)c43)NC(=O)/C(C)=C/C=C\[C@](C)(O)[C@@H](O)[C@@H](C)[C@H]1O)OCO2 [NSC156219] | 73.43%
34 | CC1=CC(=O)C2=C(C)CCC3C(C)C(=O)OC3C12 (stereo not drawn) [NSC156236] | 75.72%
35 | C=C1C(=O)O[C@H]2[C@H]1CC/C(C)=C/CC[C@@]1(C)O[C@@H]21 [NSC157035] | 97.44%
36 | CC1=CC2=C(C=O)C(=O)[C@](C)(O)[C@@H](O)C2=CO1 [NSC159632] | 82.72%
37 | COC(=O)[C@@]12OC[C@]34[C@H]([C@@H](O)[C@@H]1O)[C@@]1(C)CC(=O)C(O)=C(C)[C@@H]1C[C@H]3OC(=O)[C@H](OC(=O)/C=C(\C)C(C)C)[C@@H]24 [NSC165563] | 97.95%
38 | COC1=CC(=O)C(C2CC(=O)c3c(O)cc(O)cc3O2)=CC1=O (stereo not drawn) [NSC169517] | 98.58%
39 | COC(=O)C1C(O)C(C)C(O)OC1C(C)C(O)C(C)C=CC=C(C)C(=O)Nc1c(C)c(OC(C)=O)c2c(c1O)C(=O)C(C)=C1OCOC(C(C)=CC(C)=O)=C12 (stereo not drawn) [NSC169627] | 26.60%
40 | C=C(NC(=O)C(=C)NC(=O)c1csc(C2=NC3c4csc(n4)C4NC(=O)c5csc(n5)C(C(C)(O)C(C)O)NC(=O)C5CSC(=N5)/C(=C\C)NC(=O)C(C(C)O)NC(=O)c5csc(n5)C3(CC2)NC(=O)C(C)NC(=O)C(=C)NC(=O)C(C)NC(=O)C(C(C)CC)NC2C=Cc3c(C(C)O)cc(nc3C2O)C(=O)OC4C)n1)C(N)=O (stereo not drawn) [NSC170365] | 53.53%
41 | COC(=O)[C@@]12OC[C@]34[C@H]([C@@H](O)[C@@H]1O)[C@@]1(C)CC(=O)C(O)=C(C)[C@@H]1C[C@H]3OC(=O)[C@H](OC(=O)C=C(C)C)[C@@H]24 [NSC172924] | 122.74%
42 | CC(C)=CC(=O)O[C@H]1[C@H]2[C@H](OC(=O)[C@H]2C)[C@H](O)[C@@H](C)[C@@H]2C=CC(=O)[C@]21C [NSC176503] | 99.27%
43 | CO[C@@H]1/C=C/O[C@@]2(C)Oc3c(C)c(O)c4c(c3C2=O)C(=N[C@@H]2CC[C@@H](O)O[C@H]2C)C=C(NC(=O)/C(C)=C\C(=O)[C@@H]2C[C@@H]2[C@H](O)[C@@H](C)[C@@H](O)[C@@H](C)[C@H](OC(C)=O)[C@@H]1C)C4=O [NSC177383] | 103.89%
44 | CCC(C(=O)C(C)C(O)C(C)CCc1ccc(C)c(O)c1C(=O)O)C1OC(CC)(C2CCC(O)(CC)C(C)O2)CC1C (stereo not drawn) [NSC177406] | 94.24%
45 | CC[C@H]1NC(=O)[C@@H](NC(=O)c2ncccc2O)[C@@H](C)OC(=O)[C@H](c2ccccc2)NC(=O)[C@@H]2CC(=O)CCN2C(=O)[C@H](Cc2ccccc2)N(C)C(=O)[C@@H]2CCCN2C1=O [NSC177858] | 35.20%
46 | COc1ccc(O)c2c(=O)c3c(OC)cc4c(c3oc12)[C@@H]1C=CO[C@@H]1O4 [NSC178249] | 73.18%
47 | CC1=C(C)C(=O)O[C@@H]([C@](C)(O)[C@]2(O)CC[C@@]3(O)[C@@H]4C[C@H]5O[C@]56CC=CC(=O)[C@]6(C)[C@H]4CC[C@]23C)C1 [NSC179834] | 38.70%
48 | CC(=O)C1CCCC(=O)/C=C/C(=O)O1 (stereo not drawn) [NSC180515] | 108.07%
49 | C=C1CCO[C@]2([C@@H](O)[C@@](C)(O)CO)NC(=O)[C@@]1(O)NC2=O [NSC180516] | 114.16%
50 | C[C@H]1O[C@@H](c2ccc3c(c2O)C(=O)C2=C(C3=O)[C@@]3(O)C(=O)C[C@](C)(O)C[C@@]3(O)C=C2)C[C@@H](O)[C@@H]1O [NSC184398] | 10.15%
51 | CC[C@H]1OC(=O)[C@H](C)[C@@H](O[C@H]2C[C@@](C)(O)[C@@H](O)[C@H](C)O2)[C@H](C)[C@@H](O)[C@](C)(O)C[C@@H](C)C(=O)[C@H](C)[C@@H](O)[C@H]1C [NSC209870] | 103.21%
52 | C=C1C(=O)OC2CC1C(O)C/C(C)=C/CC/C(C)=C/C(O)CC2C (stereo not drawn) [NSC210236] | 107.44%
53 | C[C@@H]1C[C@H](C)C[C@H](C)[C@@H](O)CC(=O)O[C@H]([C@@H]2CCC[C@H]2C(=O)O)C/C=C/C=C(/C#N)[C@H](O)[C@@H](C)C1 [NSC216128] | 89.16%
54 | CO[C@H]1C[C@@H]2CC[C@@H](C)[C@@](O)(O2)C(=O)C(=O)N2CCCC[C@H]2C(=O)O[C@H]([C@H](C)C[C@@H]2CC[C@@H](O)[C@H](OC)C2)CC(=O)[C@H](C)/C=C(\C)[C@@H](O)[C@@H](OC)C(=O)[C@H](C)C[C@H](C)/C=C/C=C/C=C/1C [NSC226080] | 54.18%
